# Source: patent US20010047099A1, “4-aminopicolinates and their use as herbicides” (priority 2000, published 2001)
# Key:
# Type in all cases: in vivo
# [1] = test system: wild buckwheat (Polygonum convolvulus); assay: Postemergence herbicidal activity; conditions: Table 1, visual, after 2 weeks
# Experimental: (§1) Seeds of the desired test plant species were planted in Grace-Sierra MetroMix® 306 planting mixture, which typically has a pH of 6.0 to 6.8 and an organic matter content of about 30 percent, in plastic pots with a surface area of 64 square centimeters. When required to ensure good germination and healthy plants, a fungicide treatment and/or other chemical or physical treatment was applied. The plants were grown for 7-21 days in a greenhouse with an approximate 15 hr photoperiod which was maintained at about 23-29° C. during the day and 22-28° C. during the night. Nutrients and water were added on a regular basis and supplemental lighting was provided with overhead metal halide 1000-Watt lamps as necessary. The plants were employed for testing when they reached the first or second true leaf stage.
# (§2) A weighed amount, determined by the highest rate to be tested, of each test compound was placed in a 20 mL glass vial and was dissolved in 4 mL of a 97:3 v/v (volume/volume) mixture of acetone and dimethyl sulfoxide (DMSO) to obtain concentrated stock solutions. […] The concentrated stock solutions obtained were diluted with an aqueous mixture containing acetone, water, isopropyl alcohol, DMSO, Atplus 411F crop oil concentrate, and Triton X-155 surfactant in a 48.5:39:10:1.5:1.0:0.02 v/v ratio to obtain spray solutions of known concentration. The solutions containing the highest concentration to be tested were prepared by diluting 2 mL aliquots of the stock solution with 13 mL of the mixture and lower concentrations were prepared by serial dilution of the stock solution. Approximately 1.5 mL aliquots of each solution of known concentration were sprayed evenly onto each of the test plant pots using a DeVilbiss atomizer driven by compressed air pressure of 2 to 4 psi ([…]) to obtain thorough coverage of each plant. Control plants were sprayed in the same manner with the aqueous mixture. In this test an application rate of 1 ppm results in the application of approximately 1 g/Ha.
# (§3) The treated plants and control plants were placed in a greenhouse as described above and watered by sub-irrigation to prevent wash-off of the test compounds. After 2 weeks the condition of the test plants as compared with that of the untreated plants was determined visually and scored on a scale of 0 to 100 percent where 0 corresponds to no injury and 100 corresponds to complete kill.
# [2] = test system: chickweed (Stellaria media); assay: Postemergence herbicidal activity; conditions: Table 1, visual, after 2 weeks
# Experimental: as §1, §2, §3
# [3] = test system: cocklebur (Xanthium strumarium); assay: Postemergence herbicidal activity; conditions: Table 1, visual, after 2 weeks
# Experimental: as §1, §2, §3
# [4] = test system: pigweed (Amaranthus retroflexus); assay: Preemergence herbicidal activity; conditions: Table 6 (headed Post-emergent; text: preemergence), after 3 weeks; for pest or weed control at 280 ppm: rate 280 ppm
# Source text: (§4) Seeds of the desired test plant species were planted in a soil matrix prepared by mixing a loam soil (43 percent silt, 19 percent clay, and 38 percent sand, with a pH of about 8.1 and an organic matter content of bout 1.5 percent) and sand in a 70 to 30 ratio. The soil matrix was contained in plastic pots with a surface area of 113 square centimeters. When required to ensure good germination and healthy plants. a fungicide treatment and/or other chemical or physical treatment was applied.
# (§5) A weighed amount, determined by the highest rate to be tested, of each test compound was placed in a 20 mL glass vial and was dissolved in 4 mL of a 97:3 v/v (volume/volume) mixture of acetone and dimethyl sulfoxide to obtain concentrated stock solutions. […] The stock solutions obtained were diluted with a 99.9:0.1 mixture of water and Tween® […] surfactant to obtain application solutions of known concentration. The solutions containing the highest concentration to be tested were prepared by diluting 2 mL aliquots of the stock solution with 15 mL of the mixture and lower concentrations were prepared by serial dilution of the stock solution. A 2.5 mL aliquot of each solution of known concentration was sprayed evenly onto the soil surface (113 sq. cm) of each seeded pot using a Cornwall 5.0 mL glass syringe fitted with a TeeJet TN-3 hollow cone nozzle to obtain thorough coverage of the soil in each pot. Control pots were sprayed in the same manner with the aqueous mixture.
# (§6) The treated pots and control pots were placed in a greenhouse maintained with an approximate 15 hr photoperiod and temperatures of about 23-29° C. during the day and 22-28° C. during the night. Nutrients and water were added on a regular basis and supplemental lighting was provided with overhead metal halide 1000-Watt lamps as necessary. The water was added by top-irrigation. After 3 weeks the condition of the test plants that germinated and grew as compared with that of the untreated plants that germinated and grew was determined visually and scored on a scale of 0 to 100 percent where 0 corresponds to no injury and 100 corresponds to complete kill or no germination.
# [5] = test system: morningglory (Ipomoea hederacea); assay: Preemergence herbicidal activity; conditions: Table 6 (headed Post-emergent; text: preemergence), after 3 weeks; for pest or weed control at 280 ppm: rate 280 ppm
# Source text: as §4, §5, §6
# [6] = test system: velvetleaf (Abutilon theophrasti); assay: Preemergence herbicidal activity; conditions: Table 6 (headed Post-emergent; text: preemergence), after 3 weeks; for pest or weed control at 280 ppm: rate 280 ppm
# Source text: as §4, §5, §6
# [7] = Fallopia convolvulus, post-emergence, 336 h, rate 250 ppm, read-out: Post-emergent % Control POLCO
# [8] = Stellaria media, post-emergence, 336 h, rate 250 ppm, read-out: Post-emergent % Control STEME
# [9] = Xanthium strumarium, post-emergence, 336 h, rate 250 ppm, read-out: Post-emergent % Control XANST
# [10] = Amaranthus retroflexus, 504 h, read-out: % Control AMARE
# [11] = Ipomoea, 504 h, read-out: % Control IPOHE
# [12] = Abutilon theophrasti, 504 h, read-out: % Control ABUTH
Molecule,% Control AMARE ([4]; rate 560 ppm) [%],% Control IPOHE ([5]; rate 560 ppm) [%],% Control ABUTH ([6]; rate 560 ppm) [%],Post-emergent % Control POLCO ([1]; rate 250 ppm) [%],Post-emergent % Control STEME ([2]; rate 250 ppm) [%],Post-emergent % Control XANST ([3]; rate 250 ppm) [%],also measured
"O=C(O)c1nc(Cl)cc(-n2cccc2)c1Cl [Compound 37, 4-pyrrolo-3,6-Dichloropyridine-2-carboxylic acid]",100,95,100,,,,Post-emergent % Control POLCO ([1]; rate 125 ppm): 90%; Post-emergent % Control STEME ([2]; rate 125 ppm): 70%; Post-emergent % Control XANST ([3]; rate 125 ppm): 90%
"Nc1c(F)c(Oc2ccc(Cl)c(Cl)c2)nc(C(=O)O)c1Cl [Compound 55, 4-Amino-3-chloro-5-fluoro-6-(3,4-dichlorophenoxy)pyridine-2-carboxylic acid]",,,,,,,"pest or weed control at 250 ppm [1, 7]: 100%; pest or weed control at 250 ppm [2, 8]: 95%; pest or weed control at 250 ppm [3, 9]: 100%; pest or weed control at 250 ppm ([4]; Amaranthus retroflexus, 504 h, rate 250 ppm, read-out: % Control AMARE): 95%; pest or weed control at 250 ppm ([5]; Ipomoea, 504 h, rate 250 ppm, read-out: % Control IPOHE): 100%; pest or weed control at 250 ppm ([6]; Abutilon theophrasti, 504 h, rate 250 ppm, read-out: % Control ABUTH): 100%"
"Nc1cc(Oc2ccc(Cl)c(Cl)c2)nc(C(=O)O)c1Cl [Compound 51, 4-amino-3-chloro-6-(3,4-dichlorophenoxy)-pyridine-2-carboxylic acid]",,,,,,,"pest or weed control at 250 ppm [1, 7]: 100%; pest or weed control at 250 ppm [2, 8]: 70%; pest or weed control at 250 ppm [3, 9]: 100%; pest or weed control at 280 ppm [4, 10]: 98%; pest or weed control at 280 ppm [5, 11]: 0%; pest or weed control at 280 ppm [6, 12]: 80%"
"CN(O)c1cc(Cl)nc(C(=O)O)c1Cl [Compound 34, 4-N-hydroxy-N-methyl-amino-3,6-dichloropyridine-2-carboxylic acid]",100,95,100,,,,Post-emergent % Control POLCO ([1]; rate 125 ppm): 100%; Post-emergent % Control STEME ([2]; rate 125 ppm): 70%; Post-emergent % Control XANST ([3]; rate 125 ppm): 100%
"CON(C)c1cc(Cl)nc(C(=O)O)c1Cl [Compound 35, 4-N-methoxy-N-methyl-3,6-dichloropyridine-2-carboxylic acid]",95,85,90,,,,Post-emergent % Control POLCO ([1]; rate 125 ppm): 100%; Post-emergent % Control STEME ([2]; rate 125 ppm): 60%; Post-emergent % Control XANST ([3]; rate 125 ppm): 90%
"Nc1c(Cl)c(C(=O)O)nc(Cl)c1Sc1ccccc1 [Compound 24, 4-Amino-3,6-dichloro-5-phenylthiopyridine-2-carboxylate]",20,30,50,50,50,60,
"N,N-diacetyl 4-amino-3,6-dichloropyridine-2-carboxylate [Compound 13]",100,95,95,80,100,95,
"CCCCOCCOC(=O)c1nc(Cl)cc(N)c1Cl [Compound 10, butoxyethyl 4-amino-3,6-dichloropyridine-2-carboxylate]",,,,,,,"pest or weed control at 125 ppm ([1]; Fallopia convolvulus, post-emergence, 336 h, rate 125 ppm, read-out: Post-emergent % Control POLCO): 100%; pest or weed control at 125 ppm ([2]; Stellaria media, post-emergence, 336 h, rate 125 ppm, read-out: Post-emergent % Control STEME): 50%; pest or weed control at 125 ppm ([3]; Xanthium strumarium, post-emergence, 336 h, rate 125 ppm, read-out: Post-emergent % Control XANST): 90%; pest or weed control at 280 ppm [4, 10]: 100%; pest or weed control at 280 ppm [5, 11]: 100%; pest or weed control at 280 ppm [6, 12]: 100%"
"C=CCNc1cc(Cl)nc(C(=O)O)c1Cl [Compound 30, 4-N-allylamino-3,6-dichloropyridine-2-carboxylic acid]",90,85,95,100,80,100,
"O=C(O)c1nc(Cl)cc(NCCO)c1Cl [Compound 31, 4-N-hydroxyethylamino-3,6-dichloropyridine-2-carboxylic acid]",95,100,95,70,30,40,
"COCCNc1cc(Cl)nc(C(=O)O)c1Cl [Compound 32, 4-N-methoxyethylamino-3,6-dichloropyridine-2-carboxylic acid]",70,90,90,100,20,80,
"Nc1c(F)c(Br)nc(C(=O)O)c1F [Compound 16, 4-Amino-3,5-difluoro-6-bromopyridine-2-carboxylic acid]",,,,,,,"pest or weed control at 250 ppm [1, 7]: 70%; pest or weed control at 250 ppm [2, 8]: 30%; pest or weed control at 250 ppm [3, 9]: 60%; pest or weed control at 560 ppm ([4]; Amaranthus retroflexus, 504 h, rate 560 ppm, read-out: % Control AMARE): 70%; pest or weed control at 560 ppm ([5]; Ipomoea, 504 h, rate 560 ppm, read-out: % Control IPOHE): 80%; pest or weed control at 560 ppm ([6]; Abutilon theophrasti, 504 h, rate 560 ppm, read-out: % Control ABUTH): 0%"
"COC(=O)c1nc(Br)c(Br)c(N)c1Br [Compound 18, Methyl 4-amino-3,5,6-tribromopyridine-2-carboxylate]",,,,,,,"pest or weed control at 250 ppm [1, 7]: 75%; pest or weed control at 250 ppm [2, 8]: 90%; pest or weed control at 250 ppm [3, 9]: 85%; pest or weed control at 280 ppm [4, 10]: 80%; pest or weed control at 280 ppm [5, 11]: 30%; pest or weed control at 280 ppm [6, 12]: 98%"
"CC(C)Nc1cc(Cl)nc(C(=O)O)c1Cl [Compound 28, 4-N-isopropylamino-3,6-dichloropyridine-2-carboxylic acid]",100,100,100,95,90,95,
"COC(=O)c1nc(Cl)cc(NC(C)=O)c1Cl [Compound 12, Methyl N-acetyl 4-amino-3,6-dichloropyridine-2-carboxylate]",100,100,95,,,,Post-emergent % Control POLCO ([1]; rate 125 ppm): 100%; Post-emergent % Control STEME ([2]; rate 125 ppm): 30%; Post-emergent % Control XANST ([3]; rate 125 ppm): 90%
